Assay results from the supplement of paper PMC11997997.

Experiments:
[1] = test system: Mycobacterium tuberculosis CDC1551 (intracellular, in murine BMDM); experiment: area under intracellular growth-inhibition dose-response curve (AUC (% inhibition x dose, relative)); higher = more potent; conditions: duration: 6 days; dose range: 0.13-80 uM, 8 points
Outline: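 Each value is an area under the growth-inhibition dose–response curve, calculated with GraphPad Prism. Infected primary murine bone marrow-derived macrophages, carrying luciferase-expressing M. tuberculosis CDC1551 at multiplicity of infection 1, were treated for 6 days with an 8-dose, 2.5-fold series (final 80–0.13 μM) in 384-well opaque plates. Readout was by Bright-Glo luciferin assay, normalised to a reference drug control and the lowest-concentration wells.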

[2] = test system: murine bone marrow-derived macrophages; experiment: area under cytotoxicity dose-response curve (AUC (% cytotoxicity x dose, relative)); higher = more cytotoxic; conditions: duration: 6 days; dose range: 0.13-80 uM, 8 points
Outline: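 An 8-point, 2.5-fold dilution series (final 80–0.13 μM) was applied for 6 days at 37 °C in 5% CO2 to primary murine bone marrow-derived macrophages plated in opaque 384-well plates. Promega's CellTiter-Glo luminescence assay measured viability, and percent cytotoxicity was normalised against vehicle and positive control wells. The area under the dose–response curve, worked out in GraphPad Prism version 10, is the reported cytotoxicity measure.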

Compound	area under intracellular growth-inhibition dose-response curve [1]	area under cytotoxicity dose-response curve [2]
CCO.C[C@H]1c2cccc(O)c2C(=O)C2=C(O)[C@]3(O)C(O)=C(C(N)=O)C(=O)[C@@H](N(C)C)C3[C@@H](O)C21.Cl.O (some centres not stated)	242	81.3
O=C(NCCc1ccccc1)c1ccc(Br)o1	193	46.2
CC(=O)OCC1=C(C(=O)O)N2C(=O)C(NC(=O)Cn3nc(C(F)F)c(Cl)c3C)C2SC1 (configuration not stated)	195	2.26
Cc1cnc(C(=O)OCC(=O)Nc2cccc3ccccc23)cn1	15.8	< 0
O=C(NCCc1ccc(Cl)cc1)c1ccc(CNc2c(N3CCOCC3)c(=O)c2=O)cc1	162	< 0
O=C(CC1CCCCC1)NCC1CCCO1 (configuration not stated)	165	25.1
COc1ccc(/C=N/Nc2cc(C)nc3ccc(OC)cc23)c(OC)c1	151	42.9
CC(=O)N1CCN(c2ccc(NC(=O)c3ccc([N+](=O)[O-])o3)cc2Cl)CC1	49.4	88.8
CC(=O)c1cccc(NC(=O)NC2CCCCCCC2)c1	244	36.2
C/C(=N\NC(=O)c1ccncc1)c1cccc(NC(=O)c2ccc(C(C)(C)C)cc2)c1	264	47.8
Cn1nnnc1SCC1=C(C(=O)O)N2C(=O)C(NC(=O)Cn3nc(C(F)F)cc3C3CC3)C2SC1 (configuration not stated)	177	38.2
Cl.c1ccc(CN2CCC3(CCCc4ccccc43)CC2)cc1	160	45.5
COc1cccc2sc(N3CCN(C(=O)c4ccc([N+](=O)[O-])o4)CC3)nc12	6.52	57.3
COc1cc(OC)c2c(OC)cccc2n1	92.3	101
CCc1ccc(/C(C)=N/NC(=O)c2ccc(-n3cnnn3)cc2)cc1	< 0	24.6
Cc1nnc(NCc2cccc(Cl)c2)c2ccccc12	211	128
O=C(COc1ccccc1)NC(=S)Nc1ccc2c(c1)Cc1ccccc1-2	190	74
COc1c(/C=N/NC(N)=S)c(C)nn1-c1ccccc1	194	32.6
N#C/C(=N\Nc1ccc(Cl)cc1)C(N)=S	102	16.4
CCC(=O)N1CCN(c2ccc(NC(=O)c3ccc([N+](=O)[O-])o3)cc2)CC1	47.9	3.32
O=C(NN=C1C2CC3CC(C2)CC1C3)c1ccncc1	238	103
COc1ccccc1C(CNC(=O)c1ccc(-c2ccccc2Cl)o1)N1CCCC1 (configuration not stated)	164	141
C=CCn1c(SCC(=O)NC(=O)Cc2ccccc2)nc2ccccc2c1=O	158	< 0
CN(C)c1ccc(O)c2c1CC1CC3[C@@H](N(C)C)C(=O)C(C(N)=O)=C(O)[C@]3(O)C(=O)C1=C2O.Cl (some centres not stated)	246	112
O=C(N/N=C\c1ccc(Cl)s1)C1COc2ccccc2O1 (configuration not stated)	129	2.47
O=C(Nc1ccc(Br)cc1)NC1CCCCCCC1	263	26.1
